In paper PMC5550883, “Binding of doxorubicin to Sorcin impairs cell death and increases drug resistance in cancer cells” (Cell Death & Disease, 2017) one finds Kd and affinity constant data, which are given here for four compounds.

For test [1], the target named is T1, Sorcin (Homo sapiens, UniProt P30626).
T1 construct: gene SRI; full-length wild type; immobilized by amine coupling for SPR; homodimer
T1 sequence (P30626 1-198): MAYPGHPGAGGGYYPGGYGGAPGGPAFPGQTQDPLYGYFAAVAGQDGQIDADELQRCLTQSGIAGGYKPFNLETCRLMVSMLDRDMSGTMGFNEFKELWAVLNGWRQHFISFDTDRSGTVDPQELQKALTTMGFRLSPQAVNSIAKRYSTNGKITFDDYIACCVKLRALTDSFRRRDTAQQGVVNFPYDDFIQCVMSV
As to the kind of experiment: SPR, immobilized Sorcin, one-site fit. It counts as binding.

For test [2], the target named is T2, Sorcin calcium-binding domain (SCBD) (Homo sapiens, UniProt P30626).
T2 construct: gene SRI; dimer
T2 sequence (P30626 32-198): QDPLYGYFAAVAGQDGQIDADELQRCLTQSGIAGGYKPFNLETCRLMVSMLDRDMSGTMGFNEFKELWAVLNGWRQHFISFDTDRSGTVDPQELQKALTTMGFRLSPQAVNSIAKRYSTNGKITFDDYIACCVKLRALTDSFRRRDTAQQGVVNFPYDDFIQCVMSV
As to the kind of experiment: intrinsic tryptophan/tyrosine fluorescence quenching titration (ex […] nm), two-site fit. To be noted: Tris-HCl 10 mM pH 7.5, 0.5 uM EDTA, 25 C; stronger of two sites; unreliable (KD1 below protein concentration, large errors).

The target of test [3] is T1, Sorcin. The experiment in a line: SPR (OneStep), immobilized Sorcin. It counts as binding. To be noted: HEPES 20 mM pH 7.4, NaCl 150 mM, 2% DMSO, 25 C; CaCl2 or EDTA not told.

`[NH2][Pt]([NH2])([Cl])[Cl]` [cisplatin] gave a Kd at Sorcin [1] of 1700 nM. For the compound `COc1cccc2c1C(=O)c1c(O)c3c(c(O)c1C2=O)C[C@@](O)(C(=O)CO)C[C@@H]3O[C@H]1C[C@H](N)[C@H](O)[C@H](C)O1` [doxorubicin], in test [2], the affinity constant came out at 1.4 ± 1 nM. Consider `CC(=O)O[C@H]1C(=O)[C@@]2(C)[C@H]([C@H](OC(=O)c3ccccc3)[C@]3(O)C[C@H](OC(=O)[C@H](O)[C@@H](NC(=O)c4ccccc4)c4ccccc4)C(C)=C1C3(C)C)[C@]1(OC(C)=O)CO[C@@H]1C[C@@H]2O` [paclitaxel], for which the Kd result at Sorcin [3] is “Sorcin is able to bind doxorubicin, paclitaxel and vinblastine, with high affinity”.

Regarding `CC[C@]1(O)C[C@@H]2CN(CCc3c([nH]c4ccccc34)[C@@](C(=O)OC)(c3cc4c(cc3OC)N(C)[C@H]3[C@@](O)(C(=O)OC)[C@H](OC(C)=O)[C@]5(CC)C=CCN6CC[C@]43[C@@H]65)C2)C1` [vinblastine], the Kd entry on Sorcin [3] was “Sorcin is able to bind doxorubicin, paclitaxel and vinblastine, with high affinity”.

The term Kd denotes a measure of binding affinity in units of concentration. Higher therefore signals weaker binding.
